The numbers were not newly measured in US5830503A (Andrx Pharmaceuticals, Inc., priority 1996, dated 1998), which cites them from elsewhere.

The conditions of the series: as compared to intravenous administration; first pass effect.

On to `COc1ccc([C@@H]2Sc3ccccc3N(CCN(C)C)C(=O)[C@@H]2OC(C)=O)cc1` [diltiazem], for which the absolute bioavailability result is on record as “about 40%”.
